The numbers were not newly measured in US8455478B2, “Rapid onset liquid midazolam composition for buccal administration” (Special Products, Ltd., priority 2010, dated 2013), which cites them from elsewhere.

The conditions of the data set: pH 8, aqueous solution.

Each structure is given as a SMILES string.

Consider `Cc1ncc2n1-c1ccc(Cl)cc1C(c1ccccc1F)=NC2` [midazolam, 8-chloro-6-(2-fluorophenyl)-1-methyl-4H-imidazo[1,5-a][1,4]], for which the solubility of midazolam is 55 µg/mL.
